Laboratory results published in PubChem BioAssay (NCI).
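Where inhibition never reached the appropriate level, the endpoint shown equals the highest concentration tested. Otherwise, values were interpolated linearly from a five-concentration, 48-hour dose response in 96-well plates. The concentration for full growth arrest is given as TGI.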

Experiments:
Test in all cases: DTP human tumour cell line panel, 48 h
[1] = system: SF-539 CNS
[2] = system: COLO 205 colon
[3] = system: RXF 393 renal
[4] = system: MDA-MB-435
[5] = system: SW-620 colon
[6] = system: TK-10 renal
[7] = system: UACC-62 melanoma
[8] = system: NCI-H522 lung
[9] = system: SK-MEL-28 melanoma
[10] = system: UO-31 renal
[11] = system: HCT-15 colon
[12] = system: HOP-92 NSCLC
[13] = system: IGROV1 ovarian
[14] = system: ACHN renal
[15] = system: CCRF-CEM leukemia
[16] = system: SN12C renal
[17] = system: A549 NSCLC
[18] = system: NCI-H226 lung
[19] = system: HT29 colon
[20] = system: MALME-3M melanoma
[21] = system: SNB-75 CNS
[22] = system: CAKI-1 renal
[23] = system: A498 renal
[24] = system: HS 578T breast
[25] = system: SNB-19 CNS
[26] = system: KM12 colon
[27] = system: SK-MEL-2 melanoma
[28] = system: PC-3 prostate
[29] = system: M14 melanoma
[30] = system: SR leukemia
[31] = system: HCC-2998 colon
[32] = system: BT-549 breast
[33] = system: EKVX NSCLC
[34] = system: MCF7 breast
[35] = system: OVCAR-3 ovarian
[36] = system: NCI-H460 lung
[37] = system: LOX IMVI melanoma
[38] = system: OVCAR-8 ovarian
[39] = system: OVCAR-5 ovarian
[40] = system: DU-145 prostate
[41] = system: 786-0 renal
[42] = system: MDA-N
[43] = system: HCT-116 colon
[44] = system: UACC-257 melanoma
[45] = system: SK-MEL-5 melanoma
[46] = system: K-562 leukemia
[47] = system: MDA-MB-231 breast
[48] = system: SK-OV-3 ovarian
[49] = system: T-47D breast
[50] = system: RPMI-8226 leukemia
[51] = system: OVCAR-4 ovarian
[52] = system: HOP-62 NSCLC
[53] = system: HL-60(TB) leukemia
[54] = system: MOLT-4 leukemia
[55] = system: U251 CNS
[56] = system: SF-295 CNS
[57] = system: SF-268 CNS
[58] = system: NCI-H23 lung
[59] = system: NCI/ADR-RES ovarian

## O=C(NCCc1ccc(F)cc1)c1cc(/C=C/c2cc(O)ccc2O)ccc1O
[1]
  TGI: 5.84 µM
[2]
  TGI: 13.6 µM
[3]
  TGI: 4.4 µM
[4]
  TGI: 22 µM
[5]
  TGI: > 100 µM
[6]
  TGI: 5.64 µM
[7]
  TGI: 4.85 µM
[8]
  TGI: 4.88 µM
[9]
  TGI: > 25.3 µM
[10]
  TGI: 3.07 µM
[11]
  TGI: 6.32 µM
[12]
  TGI: 3.97 µM
[13]
  TGI: 7.66 µM
[14]
  TGI: 4.25 µM
[15]
  TGI: > 100 µM
[16]
  TGI: 21.1 µM
[17]
  TGI: > 100 µM
[18]
  TGI: 29.5 µM
[19]
  TGI: 62.1 µM
[20]
  TGI: 5.92 µM
[21]
  TGI: 14.4 µM
[22]
  TGI: 15 µM
[23]
  TGI: 14.1 µM
[24]
  TGI: > 100 µM
[25]
  TGI: 20.8 µM
[26]
  TGI: 38 µM
[27]
  TGI: 7.95 µM
[28]
  TGI: 10.9 µM
[29]
  TGI: 12.5 µM
[30]
  TGI: > 30 µM
[31]
  TGI: 26 µM
[32]
  TGI: 2.97 µM
[33]
  TGI: 6.38 µM
[34]
  TGI: 10.1 µM
[35]
  TGI: 8.44 µM
[36]
  TGI: 40 µM
[37]
  TGI: 14 µM
[38]
  TGI: 13.6 µM
[39]
  TGI: 22.3 µM
[40]
  TGI: 33.2 µM
[41]
  TGI: 5.03 µM
[42]
  TGI: 9.59 µM
[43]
  TGI: 3.94 µM
[44]
  TGI: 6.52 µM
[45]
  TGI: 6.35 µM
[46]
  TGI: > 29.2 µM
[47]
  TGI: 10.5 µM
[48]
  TGI: 27.9 µM
[49]
  TGI: 5.28 µM
[50]
  TGI: > 100 µM
[51]
  TGI: 12 µM
[52]
  TGI: 14.8 µM
[53]
  TGI: 15.4 µM
[54]
  TGI: 6.99 µM
[55]
  TGI: 4.49 µM
[56]
  TGI: 36.2 µM
[57]
  TGI: 12.2 µM
[58]
  TGI: 13.3 µM
[59]
  TGI: 10.7 µM

## O=C(NC12CC3CC(CC(C3)C1)C2)n1cnc2cncnc21
[1]
  TGI: 54.5 µM
[2]
  TGI: 37.4 µM
[3]
  TGI: > 100 µM
[4]
  TGI: > 100 µM
[5]
  TGI: > 100 µM
[6]
  TGI: > 100 µM
[7]
  TGI: > 100 µM
[8]
  TGI: 53.8 µM
[9]
  TGI: > 100 µM
[10]
  TGI: > 100 µM
[11]
  TGI: > 100 µM
[12]
  TGI: > 100 µM
[13]
  TGI: 98 µM
[14]
  TGI: > 100 µM
[15]
  TGI: > 100 µM
[16]
  TGI: > 100 µM
[17]
  TGI: > 100 µM
[19]
  TGI: > 100 µM
[20]
  TGI: 78.6 µM
[21]
  TGI: > 100 µM
[22]
  TGI: > 100 µM
[23]
  TGI: > 100 µM
[24]
  TGI: > 100 µM
[25]
  TGI: > 100 µM
[26]
  TGI: > 100 µM
[27]
  TGI: 58.4 µM
[28]
  TGI: 98.7 µM
[29]
  TGI: > 100 µM
[30]
  TGI: 62.4 µM
[31]
  TGI: > 100 µM
[32]
  TGI: > 100 µM
[33]
  TGI: > 100 µM
[34]
  TGI: > 100 µM
[35]
  TGI: 47 µM
[36]
  TGI: > 100 µM
[37]
  TGI: 92 µM
[38]
  TGI: > 100 µM
[39]
  TGI: > 100 µM
[40]
  TGI: > 100 µM
[41]
  TGI: > 100 µM
[42]
  TGI: > 100 µM
[43]
  TGI: > 100 µM
[44]
  TGI: > 100 µM
[45]
  TGI: 30.6 µM
[46]
  TGI: > 100 µM
[47]
  TGI: > 100 µM
[48]
  TGI: 47.1 µM
[49]
  TGI: > 100 µM
[50]
  TGI: 79.4 µM
[52]
  TGI: 51.5 µM
[53]
  TGI: > 100 µM
[54]
  TGI: > 100 µM
[55]
  TGI: > 100 µM
[56]
  TGI: 67.6 µM
[57]
  TGI: > 100 µM
[58]
  TGI: > 100 µM
[59]
  TGI: > 100 µM

## Cc1cc(S(=O)(=O)Nc2nc(N)n(-c3ccccc3)n2)c(S)cc1Cl
[1]
  TGI: > 100 µM
[2]
  TGI: > 100 µM
[3]
  TGI: > 100 µM
[4]
  TGI: > 100 µM
[5]
  TGI: > 100 µM
[6]
  TGI: > 100 µM
[7]
  TGI: > 100 µM
[8]
  TGI: > 100 µM
[9]
  TGI: > 100 µM
[10]
  TGI: > 100 µM
[11]
  TGI: > 100 µM
[13]
  TGI: > 100 µM
[14]
  TGI: > 100 µM
[15]
  TGI: > 100 µM
[16]
  TGI: > 100 µM
[17]
  TGI: > 100 µM
[18]
  TGI: > 100 µM
[19]
  TGI: > 100 µM
[20]
  TGI: > 100 µM
[21]
  TGI: > 100 µM
[22]
  TGI: > 100 µM
[23]
  TGI: > 100 µM
[24]
  TGI: > 100 µM
[25]
  TGI: > 100 µM
[26]
  TGI: > 100 µM
[27]
  TGI: > 100 µM
[28]
  TGI: > 100 µM
[29]
  TGI: > 100 µM
[30]
  TGI: > 100 µM
[31]
  TGI: > 100 µM
[32]
  TGI: > 100 µM
[33]
  TGI: > 100 µM
[34]
  TGI: > 100 µM
[35]
  TGI: > 100 µM
[36]
  TGI: > 100 µM
[37]
  TGI: > 100 µM
[38]
  TGI: > 100 µM
[39]
  TGI: > 100 µM
[40]
  TGI: > 100 µM
[41]
  TGI: > 100 µM
[42]
  TGI: > 100 µM
[43]
  TGI: > 100 µM
[44]
  TGI: > 100 µM
[45]
  TGI: > 100 µM
[46]
  TGI: > 100 µM
[47]
  TGI: > 100 µM
[48]
  TGI: > 100 µM
[49]
  TGI: > 100 µM
[50]
  TGI: > 100 µM
[51]
  TGI: > 100 µM
[52]
  TGI: > 100 µM
[53]
  TGI: > 100 µM
[54]
  TGI: > 100 µM
[55]
  TGI: > 100 µM
[57]
  TGI: > 100 µM
[59]
  TGI: > 100 µM

## Cc1cc2nc(N)n[n+]([O-])c2cc1C
[1]
  TGI: > 100 µM
[2]
  TGI: > 100 µM
[3]
  TGI: > 100 µM
[4]
  TGI: > 100 µM
[5]
  TGI: > 100 µM
[6]
  TGI: > 100 µM
[7]
  TGI: > 100 µM
[8]
  TGI: > 100 µM
[9]
  TGI: > 100 µM
[10]
  TGI: > 100 µM
[11]
  TGI: > 100 µM
[13]
  TGI: > 100 µM
[14]
  TGI: > 100 µM
[15]
  TGI: > 100 µM
[16]
  TGI: > 100 µM
[17]
  TGI: > 100 µM
[18]
  TGI: > 100 µM
[19]
  TGI: > 100 µM
[20]
  TGI: > 100 µM
[22]
  TGI: > 100 µM
[23]
  TGI: > 100 µM
[24]
  TGI: > 100 µM
[25]
  TGI: > 100 µM
[26]
  TGI: > 100 µM
[27]
  TGI: > 100 µM
[28]
  TGI: > 100 µM
[29]
  TGI: > 100 µM
[30]
  TGI: > 100 µM
[31]
  TGI: > 100 µM
[32]
  TGI: > 100 µM
[33]
  TGI: > 100 µM
[34]
  TGI: > 100 µM
[37]
  TGI: > 100 µM
[38]
  TGI: > 100 µM
[39]
  TGI: > 100 µM
[40]
  TGI: > 100 µM
[41]
  TGI: > 100 µM
[42]
  TGI: > 100 µM
[43]
  TGI: > 100 µM
[44]
  TGI: > 100 µM
[45]
  TGI: > 100 µM
[46]
  TGI: > 100 µM
[47]
  TGI: > 100 µM
[48]
  TGI: > 100 µM
[49]
  TGI: > 100 µM
[50]
  TGI: > 100 µM
[52]
  TGI: > 100 µM
[53]
  TGI: > 100 µM
[54]
  TGI: > 100 µM
[55]
  TGI: > 100 µM
[56]
  TGI: > 100 µM
[57]
  TGI: > 100 µM
[58]
  TGI: > 100 µM
[59]
  TGI: > 100 µM
